System: anti-CYP mAb
Assay: colloidal gold LFIA strip
Assay type: binding, mouse
Design: key to T line color intensity: +++: More plus signs (+) mean darker red; ++-: More plus signs (+) mean darker red; +--: More plus signs (+) mean darker red; --- means no color band
Protocol: Colloidal gold particles were synthesized with trisodium citrate as a reducing agent according to our previous work. For the preparation of colloidal gold mAb, 6.65 μg/mL anti-CYP mAbs were added to the colloidal gold solution adjusted to pH 8.2 using 0.2 mol/L K2CO3 with shaking at room temperature for 1 h. BSA (1%) was used to block free colloidal gold particles. After 1 h, the mixture was centrifuged at 12,000 revolutions per minute (RPM) for 15 min to remove free anti-CYP mAbs. The centrifuged deposits were resuspended using one-tenth of the original volume of sodium borate solution (0.01 mol/L) containing 2% BSA and 3% sucrose and preserved at 4 °C.
As depicted in Figure 1A, the LFIA strip was assembled into four components. The center section of a PVC plate was affixed to an NC membrane. The sample pad and absorption pad were stuck on both ends of the PVC plate, and both overlapped with the NC membrane by 1 mm. A total of 2 mg/mL of hapten 5-BSA and 0.5 mg/mL of GAMA were sprayed onto the NC membrane as the test line and control line, respectively, with 5 mm intervals by an automatic dispenser. After drying at 37 °C for 12 h, the fabricated cards were cut into 4 mm wide LFIA strips.
One hundred microliters of the CYP standard solution and 4 μL of the colloidal gold mAb solution were added into a micropore and mixed. After 5 min, an LFIA strip was inserted into the mixture solution. During the mixed solution migration from the sample pad to the absorbent pad, colloidal gold mAb was captured by the T and C lines, resulting in the appearance of color bands within 10 min. When the T line disappeared or the color intensity of the T line was lower than that of the C line, the result was positive (Figure 1B,C). When the color intensity of the T line was not less than that of the C line, the result was negative (Figure 1D).
The sensitivity of the LFIA strip was evaluated by a series of CYP standard solutions (0.7, 0.6, 0.5, 0.4, 0.3, 0.2, 0.1, 0 μg/mL). For qualitative analysis, the sensitivity of the LFIA strip was appraised by the visual LOD (vLOD) and the cut-off value. The vLOD is the lowest concentration of CYP at which the lighter color of the T line is observed compared to the C line. The cut-off value is the minimum CYP concentration at which no color band appears on the T line.
The CRs of the LFIA were calculated with the following equation:CR (%) = (vLOD of CYP/vLOD of analogues) × 100%.

## CC1(C)C(C=C(Cl)Cl)C1C(=O)OC(C#N)c1cccc(Oc2ccccc2)c1 (centres unmarked) [CYP, Cypermethrin]
0.3 µg/mL, Acetone 10 v%
  T line color intensity: +++
0.3 µg/mL, Acetone 20 v%
  T line color intensity: +++
0.3 µg/mL, Acetone 30 v%
  T line color intensity: ++-
0.3 µg/mL, Acetone 40 v%
  T line color intensity: +--
0.3 µg/mL, Acetonitrile 10 v%
  T line color intensity: +++
0.3 µg/mL, Acetonitrile 20 v%
  T line color intensity: ++-
0.3 µg/mL, Acetonitrile 30 v%
  T line color intensity: +--
0.3 µg/mL, Acetonitrile 40 v%
  T line color intensity: ---
0.3 µg/mL, Dimethyl sulfoxide 10 v%
  T line color intensity: ++-
0.3 µg/mL, Dimethyl sulfoxide 20 v%
  T line color intensity: +++
0.3 µg/mL, Dimethyl sulfoxide 30 v%
  T line color intensity: ++-
0.3 µg/mL, Dimethyl sulfoxide 40 v%
  T line color intensity: ++-
0.3 µg/mL, Methanol 10 v%
  T line color intensity: +++
0.3 µg/mL, Methanol 20 v%
  T line color intensity: +++
0.3 µg/mL, Methanol 30 v%
  T line color intensity: ++-
0.3 µg/mL, Methanol 40 v%
  T line color intensity: +--
0.3 µg/mL, Na+ 0.07 mol/L
  T line color intensity: +++
0.3 µg/mL, Na+ 0.14 mol/L
  T line color intensity: +++
0.3 µg/mL, Na+ 0.25 mol/L
  T line color intensity: +++
0.3 µg/mL, Na+ 0.5 mol/L
  T line color intensity: ++-
0.3 µg/mL, Na+ 1 mol/L
  T line color intensity: ++-
0.3 µg/mL, Na+ 2 mol/L
  T line color intensity: +--
0.3 µg/mL, pH 6
  T line color intensity: +++
0.3 µg/mL, pH 7
  T line color intensity: +++
0.3 µg/mL, pH 7.4
  T line color intensity: +++
0.3 µg/mL, pH 8
  T line color intensity: ++-
0.3 µg/mL, pH 9
  T line color intensity: +--
0.4 µg/mL, Acetone 10 v%
  T line color intensity: ++-
0.4 µg/mL, Acetone 20 v%
  T line color intensity: +--
0.4 µg/mL, Acetone 30 v%
  T line color intensity: +--
0.4 µg/mL, Acetone 40 v%
  T line color intensity: ---
0.4 µg/mL, Acetonitrile 10 v%
  T line color intensity: ++-
0.4 µg/mL, Acetonitrile 20 v%
  T line color intensity: +--
0.4 µg/mL, Acetonitrile 30 v%
  T line color intensity: +--
0.4 µg/mL, Acetonitrile 40 v%
  T line color intensity: ---
0.4 µg/mL, Dimethyl sulfoxide 10 v%
  T line color intensity: +--
0.4 µg/mL, Dimethyl sulfoxide 20 v%
  T line color intensity: +--
0.4 µg/mL, Dimethyl sulfoxide 30 v%
  T line color intensity: +--
0.4 µg/mL, Dimethyl sulfoxide 40 v%
  T line color intensity: +--
0.4 µg/mL, Methanol 10 v%
  T line color intensity: +--
0.4 µg/mL, Methanol 20 v%
  T line color intensity: +--
0.4 µg/mL, Methanol 30 v%
  T line color intensity: +--
0.4 µg/mL, Methanol 40 v%
  T line color intensity: +--
0.4 µg/mL, Na+ 0.07 mol/L
  T line color intensity: ++-
0.4 µg/mL, Na+ 0.14 mol/L
  T line color intensity: ++-
0.4 µg/mL, Na+ 0.25 mol/L
  T line color intensity: ++-
0.4 µg/mL, Na+ 0.5 mol/L
  T line color intensity: ++-
0.4 µg/mL, Na+ 1 mol/L
  T line color intensity: ++-
0.4 µg/mL, Na+ 2 mol/L
  T line color intensity: +--
0.4 µg/mL, pH 6
  T line color intensity: ++-
0.4 µg/mL, pH 7
  T line color intensity: +--
0.4 µg/mL, pH 7.4
  T line color intensity: ++-
0.4 µg/mL, pH 8
  T line color intensity: +--
0.4 µg/mL, pH 9
  T line color intensity: ---
0.6 µg/mL, Acetone 10 v%
  T line color intensity: +--
0.6 µg/mL, Acetone 20 v%
  T line color intensity: +--
0.6 µg/mL, Acetone 30 v%
  T line color intensity: ---
0.6 µg/mL, Acetone 40 v%
  T line color intensity: ---
0.6 µg/mL, Acetonitrile 10 v%
  T line color intensity: +--
0.6 µg/mL, Acetonitrile 20 v%
  T line color intensity: ---
0.6 µg/mL, Acetonitrile 30 v%
  T line color intensity: ---
0.6 µg/mL, Acetonitrile 40 v%
  T line color intensity: ---
0.6 µg/mL, Dimethyl sulfoxide 10 v%
  T line color intensity: ---
0.6 µg/mL, Dimethyl sulfoxide 20 v%
  T line color intensity: ---
0.6 µg/mL, Dimethyl sulfoxide 30 v%
  T line color intensity: ---
0.6 µg/mL, Dimethyl sulfoxide 40 v%
  T line color intensity: ---
0.6 µg/mL, Methanol 10 v%
  T line color intensity: ---
0.6 µg/mL, Methanol 20 v%
  T line color intensity: +--
0.6 µg/mL, Methanol 30 v%
  T line color intensity: +--
0.6 µg/mL, Methanol 40 v%
  T line color intensity: ---
0.6 µg/mL, Na+ 0.07 mol/L
  T line color intensity: ---
0.6 µg/mL, Na+ 0.14 mol/L
  T line color intensity: +--
0.6 µg/mL, Na+ 0.25 mol/L
  T line color intensity: +--
0.6 µg/mL, Na+ 0.5 mol/L
  T line color intensity: +--
0.6 µg/mL, Na+ 1 mol/L
  T line color intensity: +--
0.6 µg/mL, Na+ 2 mol/L
  T line color intensity: ---
0.6 µg/mL, pH 6
  T line color intensity: ---
0.6 µg/mL, pH 7
  T line color intensity: ---
0.6 µg/mL, pH 7.4
  T line color intensity: ---
0.6 µg/mL, pH 8
  T line color intensity: ---
0.6 µg/mL, pH 9
  T line color intensity: ---
Optimal buffer
  cut-off value: 0.6 µg/mL
  visual limit of detection (vLOD): 0.3 µg/mL

Source: article PMC9688530, “Development of Ic-ELISA and Colloidal Gold Lateral Flow Immunoassay for the Determination of Cypermethrin in Agricultural Samples” (Biosensors, 2022)
